The target of the first assay is BTK (Homo sapiens, UniProt Q06187). Put plainly: biochemical. As to conditions: read-out: BTK inhibition (%).
Chain of BTK (Q06187 402-655 limits assumed): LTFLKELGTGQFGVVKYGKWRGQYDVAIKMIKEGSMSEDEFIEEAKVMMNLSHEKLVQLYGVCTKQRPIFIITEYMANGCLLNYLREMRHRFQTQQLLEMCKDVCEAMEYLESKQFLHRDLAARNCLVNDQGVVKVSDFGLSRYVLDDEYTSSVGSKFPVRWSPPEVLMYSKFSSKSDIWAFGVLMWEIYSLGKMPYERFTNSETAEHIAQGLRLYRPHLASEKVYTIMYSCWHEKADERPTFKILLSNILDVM
A word on the inhibition: it is the drop in the measured response relative to a control, in per cent. Take `CCC(=O)O[C@H]1CC[C@H]2[C@@H]3CC[C@H]4CC(=O)[C@H](C)C[C@]4(C)[C@H]3CC[C@]12C` [PCM-0215061]: the inhibition at 10 µM was -14%.

Staying with this assay, now noted: read-out: BTK inhibition (%), 0.75 uM BTK, […] probe 3l, 15 min preincubation.
As to `O=C1CC[C@@]2(O)[C@H]3Cc4ccc(O)c5c4[C@@]2(CCN3CC2CC2)[C@H]1O5` [PCM-0085829], the inhibition at 10 µM is -24.1%.

For the molecule `CC(C)=CCC/C(C)=C/CC/C(C)=C/CC/C=C(\C)CC/C=C(\C)CCC=C(C)C` [PCM-0216030], the inhibition at 10 µM was -9.7%.

On to `COc1ccc(CNc2nc(N3CCC[C@H]3CO)ncc2C(=O)NCc2ncccn2)cc1Cl` [PCM-0095565], for which the inhibition at 10 µM is -63.8%.

Take `CC(C)C[C@H](NC(=O)[C@H]1O[C@@H]1C(=O)O)C(=O)NCCCCN=C(N)N` [PCM-0215218]: the inhibition at 10 µM was 15.4%.

For the molecule `CCOC(=O)C1=C[C@]2(CC)CCCN3CCc4c(n1c1ccccc41)[C@@H]32` [PCM-0064941], the inhibition at 10 µM was -14.5%.

Regarding `O=C(NCc1ccncc1)C12CC3CC(C1)CC(c1ccc(Cl)cc1)(C3)C2` [PCM-0215553], the inhibition at 10 µM was -6.9%.

For `COc1cc(OC)c(C(=O)CCCN2CCCC2)c(OC)c1` [PCM-0085999], the inhibition at 10 µM is -12.5%.

With `COc1cc(C(=O)O)ccc1O` [PCM-0216103], the inhibition at 10 µM was 3.1%.

On to `Cc1cc(N2CCOCC2)cc2[nH]c(-c3c(NC[C@@H](O)c4cccc(Cl)c4)cc[nH]c3=O)nc12` [PCM-0214699], for which the inhibition at 10 µM was found to be 109%.

In the case of `Cn1c(=O)cc(C(=O)Nc2ccc3c(c2)OCCO3)c2ccccc21` [PCM-0215702], the inhibition at 10 µM was -3.9%.

Turning to `CC(C)CCC[C@@H](C)[C@H]1CC[C@H]2[C@@H]3CC[C@H]4C[C@@H](O)CC[C@]4(C)[C@H]3CC[C@]12C` [PCM-0216033], the inhibition at 10 µM was -9.4%.

Turning to `CCOC(=O)CC(=O)N1CCSC1COc1ccccc1OC` (centres unmarked) [PCM-0090669], the inhibition at 10 µM is -8.6%.

With `Cc1cc(C(=O)Nc2nc3cccc(Cl)c3n2[C@@H]2CCCCN(C(=O)/C=C/CN(C)C)C2)ccn1` [PCM-0215804], the inhibition at 10 µM was 73.8%.

With `COc1cc(Nc2nc3ccccc3nc2NS(=O)(=O)c2ccc(NC(=O)c3ccc(C)c(OC)c3)cc2)cc(OC)c1` [PCM-0095193], the inhibition at 10 µM is -17.9%.

In the case of `CC(=O)Nc1cccc2c1c(Sc1ccc(Cl)cc1)c(C)n2CC(=O)O` [PCM-0215238], the inhibition at 10 µM is -9.3%.

Turning to `CO[C@@H](C)Cn1c(=O)n(C)c2cnc3ccc(-c4cncc(C(C)(C)O)c4)cc3c21` [PCM-0215675], the inhibition at 10 µM was -11%.

Take `N#Cc1c(N)nc(NC2CC2)nc1N` [PCM-0216125]: the inhibition at 10 µM was determined as 14%.

With `C[C@H](CN(C)C)Oc1nc(Nc2cc3cccc(Cl)c3cn2)cnc1C#N` [PCM-0215773], the inhibition at 10 µM is -3.4%.

For `CCCCC[C@H](O)/C=C/[C@H]1[C@H](O)CC(=O)[C@@H]1CCCCCCC(=O)O` [PCM-0086285], the inhibition at 10 µM was 6.9%.

In the case of `COc1cc2c(cc1O)C[C@H]1c3cc(O)c(OC)cc3CC[N@@+]1(C)C2` [PCM-0216444], the inhibition at 10 µM is -1.5%.

For the molecule `O=C(c1ccc(C(=O)N2CCC(N3CCCC3)CC2)c(Nc2ccccc2)c1)N1CCC(N2CCCC2)CC1` [PCM-0095781], the inhibition at 10 µM was -10.8%.

In the case of `CC(=O)OCC(=O)[C@@]1(O)CC[C@H]2[C@@H]3CCC4=CC(=O)C=C[C@]4(C)[C@H]3[C@@H](O)C[C@@]21C` [PCM-0214701], the inhibition at 10 µM amounted to 2.1%.

In the case of `CCC(=O)O[C@]1(C(=O)CCl)[C@@H](C)C[C@H]2[C@@H]3CCC4=CC(=O)C=C[C@]4(C)[C@@]3(F)[C@@H](O)C[C@@]21C` [PCM-0086533], the inhibition at 10 µM was determined as 3.4%.

Consider `CCc1ccc(-c2nc(CSCC(=O)NCCc3ccccc3)c(C)o2)cc1` [PCM-0215904], for which the inhibition at 10 µM was -4.6%.

For `CCN(CC)CCOc1ccc(C(=C(Cl)c2ccccc2)c2ccccc2)cc1` [PCM-0090069], the inhibition at 10 µM was found to be 13.2%.

As for `C[C@@H]1O[C@@H](O[C@H]2[C@H](O[C@H]3CC[C@@]4(C)[C@@H](CC[C@]5(C)[C@@H]4CC=C4[C@@H]6CC(C)(C)CC[C@]6(C(=O)O[C@@H]6O[C@H](CO[C@@H]7O[C@H](CO)[C@@H](O)[C@H](O)[C@H]7O)[C@@H](O)[C@H](O)[C@H]6O)CC[C@]45C)[C@]3(C)CO)OC[C@H](O)[C@@H]2O)[C@H](O)[C@H](O[C@@H]2O[C@H](CO)[C@@H](O)[C@H](O)[C@H]2O)[C@H]1O` [PCM-0216447], the inhibition at 10 µM is -21.6%.

Take `CC(C)NCC(O)COc1ccc(CCOCC2CC2)cc1` (centres unmarked) [PCM-0064542]: the inhibition at 10 µM came to 21%.

For the molecule `CS(=O)(=O)c1ccc([C@@H](O)[C@@H](CO)NC(=O)C(Cl)Cl)cc1` [PCM-0085804], the inhibition at 10 µM was -8.6%.

Take `C=CC(=O)N1CCC[C@H](n2c(=O)n(-c3ccc(Oc4ccccc4)cc3)c3c(N)ncnc32)C1` [PCM-0215519]: the inhibition at 10 µM stood at 97.2%.

`Cc1ccc(C=NNC(=O)c2ccccc2Oc2ccccc2)o1` [PCM-0215777]: the inhibition at 10 µM was -16.2%.

As to `COc1ccc2cc1Oc1ccc(cc1)C[C@H]1c3c(cc4c(c3Oc3cc5c(cc3OC)CCN(C)[C@@H]5C2)OCO4)CCN1C` [PCM-0214760], the inhibition at 10 µM came to 30.4%.

In the case of `Nc1nc(-c2ccco2)c2cnn(Cc3ccccc3F)c2n1` [PCM-0215878], the inhibition at 10 µM turned out to be 5.4%.

Consider `CCOc1cc(C=O)ccc1OC(C)=O` [PCM-0216281], for which the inhibition at 10 µM was 4.6%.

For the molecule `COc1ccc(C2CNC(=O)C2)cc1OC1CCCC1` (centres unmarked) [PCM-0065474], the inhibition at 10 µM is 13.2%.

Consider `COc1ccccc1N1CCN(CCN(C(=O)C2CCCCC2)c2ccccn2)CC1` [PCM-0064827], for which the inhibition at 10 µM is -6.2%.

Turning to `Cc1c(OCC(F)(F)F)ccnc1C[S+]([O-])c1nc2ccccc2[nH]1` (centres unmarked) [PCM-0065586], the inhibition at 10 µM is -3.9%.

Turning to `O=C(NCCO)c1cccc(-c2cc(Nc3ccc(OC(F)(F)F)cc3)ncn2)c1` [PCM-0213352], the inhibition at 10 µM is -24.1%.

`C[C@H]1[C@H](C)CC[C@]2(C(=O)O)CC[C@]3(C)C(=CC[C@@H]4[C@@]5(C)CCC(=O)C(C)(C)[C@@H]5CC[C@]43C)[C@H]12` [PCM-0215048]: the inhibition at 10 µM came to 7%.

As to `Cc1cc(C)n(C)n1` [PCM-0215908], the inhibition at 10 µM is -6.9%.

As for `C[C@H](CCC(=O)NCC(=O)O)[C@H]1CC[C@H]2[C@@H]3[C@H](O)C[C@@H]4C[C@H](O)CC[C@]4(C)[C@H]3C[C@H](O)[C@]12C` [PCM-0215147], the inhibition at 10 µM is -10.1%.

Consider `c1csc(-c2ccc(-c3cccs3)s2)c1` [PCM-0215157], for which the inhibition at 10 µM is 0%.

For the molecule `OC[C@H]1O[C@H](Oc2ccc(O)cc2)[C@H](O)[C@@H](O)[C@@H]1O` [PCM-0215968], the inhibition at 10 µM was 4.6%.

On to `CC(=O)SCC(Cc1ccccc1)C(=O)NCC(=O)OCc1ccccc1` (centres unmarked) [PCM-0086128], for which the inhibition at 10 µM is 3.1%.

Turning to `CCCCCCCCCCCCCc1cccc(O)c1C(=O)O` [PCM-0216334], the inhibition at 10 µM is 34%.

As for `CC(C)c1noc(N2CCC(COc3ccc(-c4ccc(S(C)(=O)=O)cc4)nc3)CC2)n1` [PCM-0095313], the inhibition at 10 µM is -14%.

In the case of `O=C(c1cc(Cc2n[nH]c(=O)c3ccccc23)ccc1F)N1CCN(C(=O)C2CC2)CC1` [PCM-0094988], the inhibition at 10 µM came to 9.7%.

As to `CC(C)=CCCC(C)CC=O` (centres unmarked) [PCM-0216209], the inhibition at 10 µM worked out at 4.6%.

Regarding `CN1CCC(=C2c3ccccc3C=Cc3ccccc32)CC1` [PCM-0064430], the inhibition at 10 µM is -9.3%.

Take `C[C@H](CCC(=O)NCCS(=O)(=O)O)[C@H]1CC[C@H]2[C@@H]3[C@H](O)C[C@@H]4C[C@H](O)CC[C@]4(C)[C@H]3CC[C@]12C` [PCM-0215035]: the inhibition at 10 µM was -0.8%.

In the case of `COc1cc(C=O)cc(OC)c1O` [PCM-0215069], the inhibition at 10 µM is -33.5%.

Take `CCN(CC)CCOC(=O)c1ccc(N)cc1` [PCM-0065363]: the inhibition at 10 µM turned out to be 3.9%.

`COc1cc(O)c(C(=O)c2ccccc2)cc1S(=O)(=O)O` [PCM-0214826]: the inhibition at 10 µM was -1.6%.

Regarding `O=C(c1ccc(Oc2ccccc2)cc1Cl)c1c[nH]c2ncnc(N[C@@H]3CC[C@@H](CO)OC3)c12` [PCM-0216245], the inhibition at 10 µM worked out at 116%.

In the case of `CN(C)CCc1c[nH]c2ccc(CS(=O)(=O)N3CCCC3)cc12` [PCM-0090415], the inhibition at 10 µM is -0.8%.

As to `O=C(/C=C\n1cnc(-c2cc(C(F)(F)F)cc(C(F)(F)F)c2)n1)NNc1cnccn1` [PCM-0095752], the inhibition at 10 µM is 6.9%.

With `CCCCS(=O)(=O)N[C@@H](Cc1ccc(OCCCCC2CCNCC2)cc1)C(=O)O` [PCM-0215839], the inhibition at 10 µM is -1.5%.

Take `O=C(O)c1ccc(O)c2ncccc12` [PCM-0215316]: the inhibition at 10 µM was -4.6%.

In the case of `CCN1CCN(Cc2ccc(C(=O)Nc3ccc(C)c(Oc4ccc5c(c4)CC(=O)N5)c3)cc2C(F)(F)F)CC1` [PCM-0213332], the inhibition at 10 µM was 20.7%.

As for `CN(Cc1cc(Br)cc(Br)c1N)C1CCCCC1` [PCM-0086201], the inhibition at 10 µM is 29.6%.

For `CO/N=C(\C(=O)N[C@@H]1C(=O)N2C(C(=O)OCOC(=O)C(C)(C)C)=C(/C=C\c3scnc3C)CS[C@H]12)c1csc(N)n1` [PCM-0214651], the inhibition at 10 µM came to 28%.

On to `CCNC(=O)[C@@H]1CCCN1C(=O)[C@H](CCCN=C(N)N)NC(=O)[C@H](CC(C)C)NC(=O)[C@@H](CC(C)C)NC(=O)[C@H](Cc1ccc(O)cc1)NC(=O)[C@H](CO)NC(=O)[C@H](Cc1c[nH]c2ccccc12)NC(=O)[C@H](Cc1cnc[nH]1)NC(=O)[C@@H]1CCC(=O)N1` [PCM-0214915], for which the inhibition at 10 µM was -11.7%.

In the case of `C/C(=C\C(=O)Nc1ccccc1C(=O)O)c1ccc2ccccc2c1` [PCM-0095068], the inhibition at 10 µM is -11%.

With `Cc1c(N)nc([C@H](CC(N)=O)NC[C@H](N)C(N)=O)nc1C(=O)N[C@H](C(=O)N[C@H](C)[C@@H](O)[C@H](C)C(=O)N[C@H](C(=O)NCCc1nc(-c2nc(C(=O)NCCC[S+](C)C)cs2)cs1)[C@@H](C)O)[C@@H](O[C@@H]1O[C@@H](CO)[C@@H](O)[C@H](O)[C@@H]1O[C@H]1O[C@H](CO)[C@@H](O)[C@H](OC(N)=O)[C@@H]1O)c1cnc[nH]1` [PCM-0215181], the inhibition at 10 µM stood at 7.7%.

Take `CC1(C)[C@@H](O)CC[C@]2(C)[C@H]3C(=O)C=C4[C@@H]5C[C@@](C)(C(=O)O)CC[C@]5(C)CC[C@@]4(C)[C@]3(C)CC[C@@H]12` [PCM-0214675]: the inhibition at 10 µM amounted to 4.7%.
